Measured values from patent publication US7771978B2, “β1,4mannosyltransferases” (priority 2003, dated 2010).
Where two headings read alike, the source gives them in different places.

Target: T1, Egghead β1-4-mannosyltransferase (Drosophila melanogaster, UniProt O01346)
T1 construct: a secreted version of egghead was prepared as described for the full length construct; made in house; host or cells: baculovirus-infected Sf9 and High Five insect cells (microsomal fractions)
T1 sequence (O01346 1-457): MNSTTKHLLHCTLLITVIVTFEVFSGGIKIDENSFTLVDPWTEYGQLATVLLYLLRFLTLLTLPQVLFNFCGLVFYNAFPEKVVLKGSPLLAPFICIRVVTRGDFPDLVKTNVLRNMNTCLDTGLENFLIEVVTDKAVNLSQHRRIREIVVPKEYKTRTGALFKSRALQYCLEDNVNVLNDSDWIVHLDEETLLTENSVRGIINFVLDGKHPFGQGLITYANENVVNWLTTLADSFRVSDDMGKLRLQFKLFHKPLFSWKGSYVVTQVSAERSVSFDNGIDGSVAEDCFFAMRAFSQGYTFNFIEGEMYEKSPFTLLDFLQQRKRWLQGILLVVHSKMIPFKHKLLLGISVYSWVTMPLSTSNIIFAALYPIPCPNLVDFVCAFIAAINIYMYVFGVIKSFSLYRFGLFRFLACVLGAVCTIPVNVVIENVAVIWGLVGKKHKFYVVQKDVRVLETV
Assay: Egghead mannosyltransferase enzyme assay with soluble acceptor and donor substrates (microsomal fractions)
Type: biochemical
Conditions: for effect of divalent cation salt on enzyme activity: addition of 5 to 10 mM; for Substrate specificities of Egghead β1-4-mannosyltransferase, activity at 1 mM: acceptor substrate 1 mM; for Substrate specificities of Egghead β1-4-mannosyltransferase, activity at 1 mM / Substrate specificities of Egghead β1-4-mannosyltransferase, activity at 5 mM: microsomes of pVL-Egghead infected High Five cells, GalNAc-T4 background subtracted; for Substrate specificities of Egghead β1-4-mannosyltransferase, activity at 5 mM: acceptor substrate 5 mM; for donor substrate utilisation by egghead (in words): donor sugar nucleotides tested under similar conditions; for acceptor substrate activity (in words): microsomal fractions of High Five cells
Procedure: Initial assays of activity included a screen with high concentrations of monosaccharide substrates and different donor substrates.
An expression construct of the full coding region of egghead was prepared by RT-PCR using D. melanogaster mRNA and the sense primer Egh001 (5′-[…]-3′, SEQ ID NO: 4) with a BglII restriction site and the anti-sense primer Egh002 (5′-[…]-3′, SEQ ID NO: 5) with a XbaI restriction site. The resulting 1.1 Kb fragment was cloned into the BglII/XbaI sites of pVL1393 (PharMingen) and pVL1393-MYC. Furthermore an expression construct for a secreted version of egghead was prepared as described for the full length construct but using sense primer Egh003 (5′[…]-3′, SEQ ID NO: 6) with a BglII restriction site and the anti-sense primer Egh002. The resulting 1 Kb fragment was cloned into pAcGP67 Baculo-virus expression vector. Expression constructs pVL-egghead-full and pVL-egghead-Myc-full and pAcGP67-egghead-sol were co-transfected with Baculo-Gold™ DNA (Pharmingen) in Sf9 cells as described (12). Control constructs included pVL-GalNAc-T4-full (8) and pVL-brainiac-full (7). Standard enzyme assays were performed in 50 μl reaction mixtures containing 25 mM HEPES-KOH (pH 7.4), 10 mM MgCl2, 0.1% n-octylgalactoside (Sigma), and 100 μM GDP-[^14C]-Man (2,000 cpm/nmol) (Amersham), and varying concentration of acceptor substrates (purchased from Fluka, Merck, Sigma and Toronto Research Chemicals Inc; see Table I for structures). Assays with brainiac were carried out in the same reaction mixture except for addition of UDP-[^14C]GlcNAc (3,000 cpm/nmol) (Amersham) and MnCl2. Enzyme sources were microsomal fractions of baculo-virus infected Sf9 and High Five™ cells prepared essentially as described by Weis et al. (1998). Briefly, cells were lysed in lysis buffer (25 mM Tris-HCl pH 7.4, 250 mM Sucrose), after incubation 30 min on ice cells were homogenized and lysate centrifuged at 1000×G. Glycerol were added to 20% and membrane pellets were obtained by 100.000×g. Pellets were used at 10 mg/ml (Protein concentration determined by BCA, Pierce). Reaction products of soluble acceptors were quantified by chromatography on Dowex AG1-X8 (Sigma). Assays with glycosphingolipids included 5 mM 2-Acetamido-2-deoxy-D-Glucono-1,5-lactone (inhibitor of hexosaminidase activity), and products were purified on octadecyl-silica cartridges (Supelco) and analyzed by high performance thin-layer chromatography followed by autoradiography.

[1] = acceptor substrate, GDP-Man donor, read-out: apparent Km of acceptor substrate

Compound	Substrate specificities of Egghead β1-4-mannosyltransferase, activity at 1 mM (GDP-Man donor) [nmol/h/mg]	Substrate specificities of Egghead β1-4-mannosyltransferase, activity at 5 mM (GDP-Man donor) [nmol/h/mg]	also measured
[Cl][Mn][Cl] [MnCl2]			effect of divalent cation salt on enzyme activity: activated
CC(=O)N[C@H]1[C@H](Oc2ccc([N+](=O)[O-])cc2)O[C@H](CO)[C@@H](O)[C@@H]1O [GlcNAcβ1-pNph]	0.0		
CC(=O)N[C@H]1[C@H](Oc2ccc3c(C)cc(=O)oc3c2)O[C@H](CO)[C@@H](O)[C@@H]1O [GlcNAcβ1-MeUmb]	0.2	0.0	
Triton X-100			effect of detergent on egghead activity (detergent at 0.1%, microsomal membranes): inhibited
Nc1nc2c(ncn2[C@@H]2O[C@H](COP(=O)(O)OP(=O)(O)O[C@H]3O[C@H](CO)[C@@H](O)[C@H](O)[C@@H]3O)[C@@H](O)[C@H]2O)c(=O)[nH]1 [GDP-Man, GDP-mannose]			Km (donor substrate, with n-octyl-β-Glc acceptor substrate, read-out: apparent Km for GDP-Man): 58 ± 6.2 µM; donor substrate utilisation by egghead (in words): strict donor substrate specificity
CC(=O)N[C@H]1C(O)O[C@H](CO)[C@@H](O[C@@H]2O[C@H](CO)[C@@H](O)[C@H](O)[C@@H]2O)[C@@H]1O (stereo partly shown) [Manβ1-4GlcNAc]	0.0	0.0	acceptor substrate activity (in words) (GDP-Man donor): no activity
CCCCCCCCO[C@@H]1O[C@H](CO)[C@@H](O[C@@H]2O[C@H](CO)[C@@H](O)[C@H](O)[C@@H]2O)[C@H](O)[C@H]1O [Manβ1-4Glcβ1-n-Octyl]	0.0	0.0	acceptor substrate activity (in words) (GDP-Man donor): no activity
O=C[C@H](O)[C@@H](O)[C@H](O)[C@H](O)CO [D-Glucose]			acceptor substrate activity (in words) (GDP-Man donor): marked increase in GDP-Man transferase activity
CC(=O)N[C@H]1[C@H](Oc2ccc([N+](=O)[O-])cc2)O[C@H](CO)[C@H](O)[C@@H]1O [GalNAcβ1-pNph]	0.0		
CC(=O)N[C@H]1[C@@H](OP(=O)(O)OP(=O)(O)OC[C@H]2O[C@@H](n3ccc(=O)[nH]c3=O)[C@H](O)[C@@H]2O)O[C@H](CO)[C@@H](O)[C@@H]1O [UDP-GlcNAc]			donor substrate utilisation by egghead (in words): did not utilize
CCCCCCCCO[C@@H]1O[C@H](CO)[C@H](O)[C@H](O)[C@H]1O [n-octylgalactoside]			effect of n-octylgalactoside on egghead activity (3.4 mM (0.1%), microsomal membranes): activated
CCCCCCCCO[C@H]1O[C@H](CO)[C@@H](O)[C@H](O)[C@H]1O [Glcα1-n-Octyl]	3.6	6.5	
CC(=O)N[C@H]1[C@@H](OP(=O)(O)OP(=O)(O)OC[C@H]2O[C@@H](n3ccc(=O)[nH]c3=O)[C@H](O)[C@@H]2O)O[C@H](CO)[C@H](O)[C@@H]1O [UDP-GalNAc]			donor substrate utilisation by egghead (in words): did not utilize
O=[N+]([O-])c1ccc(O[C@@H]2O[C@H](CO)[C@@H](O)[C@H](O)[C@H]2O)cc1 [Glcβ1-pNph]	378.6	561.4	Km [1]: 1100 ± 300 µM
CCCCCCCCOC1O[C@H](CO)[C@@H](O)[C@H](O)[C@H]1O (stereo partly drawn) [Glcβ1-n-Octyl, n-octyl-β-glucoside]			Km [1]: 670 ± 80 µM
[Ca+2].[Cl-].[Cl-] [CaCl2]			effect of divalent cation salt on enzyme activity: had no effect
[2H]C([2H])([2H])C([2H])([2H])C([2H])([2H])C([2H])([2H])C([2H])([2H])C([2H])([2H])C([2H])([2H])C([2H])([2H])OC1([2H])O[C@]([2H])(C([2H])([2H])O)[C@@]([2H])(O)[C@]([2H])(O)[C@@]1([2H])O (stereo partly drawn) [Glcβ1-n-Octyl, n-octyl-β-glucoside]	442.8	732.6	
O=[N+]([O-])c1ccc(O[C@@H]2O[C@H](CO)[C@H](O)[C@H](O)[C@H]2O)cc1 [Galβ1-pNph]	0.0		
C[C@@H]1O[C@H](Oc2ccc([N+](=O)[O-])cc2)[C@@H](O)[C@H](O)[C@@H]1O [Fucβ1-pNph]	0.0	0.0	
OC[C@H]1O[C@H](OCc2ccccc2)[C@@H](O)[C@@H](O)[C@@H]1O [Manα-1-Bzl]	0.0		
CCCCCCCCO[C@@H]1O[C@H](CO)[C@H](O)[C@H](O)[C@H]1O [Galβ1-n-Octyl]	0.0	0.0	
Cc1cc(=O)oc2cc(O[C@@H]3O[C@H](CO)[C@@H](O)[C@H](O)[C@H]3O)ccc12 [Glcβ1-MeUmb]	330.0	611.4	
Cc1cc(=O)oc2cc(O[C@@H]3O[C@H](CO)[C@@H](O)[C@H](O)[C@@H]3O)ccc12 [Manβ1-MeUmb]	97	171.4	
Cc1cc(=O)oc2cc(O[C@@H]3O[C@H](CO)[C@@H](O)[C@H](O)[C@H]3O)ccc12 [Glcα1-MeUmb]	1.2	12.9	
C[C@H](CCC(=O)NCCC[N+](C)(C)CCCS(=O)(=O)[O-])[C@H]1CC[C@H]2[C@@H]3[C@H](O)C[C@@H]4C[C@H](O)CC[C@]4(C)[C@H]3C[C@H](O)[C@]12C [CHAPS]			effect of CHAPS on egghead activity (concentration not given, to a lesser extent than n-octylgalactoside): activated
[Cl-].[Cl-].[Mg+2] [MgCl2]			effect of divalent cation salt on enzyme activity: activated
Cc1cc(=O)oc2cc(O[C@@H]3O[C@H](CO)[C@H](O)[C@H](O)[C@H]3O)ccc12 [Galβ1-MeUmb]	0.0		
O=[N+]([O-])c1ccc(O[C@@H]2O[C@H](CO)[C@@H](O)[C@H](O)[C@@H]2O)cc1 [Manβ1-pNph]	98.6	182.9	Km [1]: 2300 ± 500 µM
Cc1cc(=O)oc2cc(O[C@@H]3OC[C@@H](O)[C@H](O)[C@H]3O)ccc12 [Xylβ1-MeUmb]	0.0		
